According to patent publication US20250195530A1, “POLQ INHIBITORS” (ASTRAZENECA AB, priority 2022, published 2025):
Where two headings read alike, the source gives them in different places.

Columns and labels:
[1] = system: DLD-1 BRCA2−/− cells; experiment: Homologous recombination synthetic lethal inhibition of proliferation, DLD-1 BRCA2-/- (Cell Titre Glo 3D); assay type: cell-based; conditions: for IC50: Homo sapiens
Method in brief: (§1)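 Wild-type DLD-1 serves as the control for non-specific toxicity, and BRCA2-null DLD-1 as the homologous-recombination-deficient line. Both grew with compound from 10 μM down to 0.51 nM, re-dosed after 6 days. Luminescent ATP content (CellTiter-Glo 3D) was read after 7 or 12 days, respectively, to give IC50 values.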

[2] = system: DLD-1 cells; experiment: Inhibition of proliferation, DLD-1 BRCA2 wt control (Cell Titre Glo 3D); assay type: cell-based; conditions: for IC50: Homo sapiens
Method in brief: as §1

[3] = DLD-1, first proliferation column (c5), taken as DLD-1 BRCA2-/-, read-out: POLQ PD Prolif Lumin (converted)
[4] = DLD-1, second proliferation column (c6), taken as DLD-1 BRCA2 wt, read-out: POLQ PD Prolif Lumin (converted)
[5] = DLD-1, 288 h, DLD-1 BRCA2−/−, 12 days, Cell Titre Glo 3D, read-out: POLQ PD Prolif Lumin BRCA2 −/− Mean pIC50 (converted)
[6] = DLD-1, 168 h, DLD-1 (BRCA2 wt control), 7 days, Cell Titre Glo 3D, read-out: POLQ PD Prolif Lumin DLD1 Mean pIC50 (converted)
[7] = DLD-1, 168 h, DLD-1 BRCA2 wt cells, 7 days, read-out: POLQ PD Prolif Lumin DLD1 mean pIC50 (converted)
[8] = DLD-1, 288 h, DLD-1 BRCA2−/− cells, 12 days, read-out: POLQ PD Prolif Lumin BRCA2 −/− mean pIC50 (converted)

CC(COc1ccc(-c2nc3c(OC4(C)CC4)ncnc3n2Cc2cccc(Cl)c2)c(Cl)c1)CC(=O)O (single isomer, unassigned) [Example T294, 4-(3-chloro-4-(9-(3-chlorobenzyl)-6-(1-methylcyclopropoxy)-9H-purin-8-yl)phenoxy)-3-methylbutanoic acid]
IC50 ([1]; DLD-1, DLD-1 BRCA2-/- proliferation, column head only partly shown, read-out: POLQ PD Prolif Lumin (converted)): 158 nM
IC50 ([2]; DLD-1, DLD-1 BRCA2 wt control proliferation, column head only partly shown, read-out: POLQ PD Prolif Lumin (converted)): > 10000 nM

CC(COc1ccc(-c2nc3c(OC4(C)CC4)ncnc3n2Cc2cccc(Cl)c2)c(Cl)c1)CC(=O)O (single isomer, unassigned) [Example T295, 4-(3-chloro-4-(9-(3-chlorobenzyl)-6-(1-methylcyclopropoxy)-9H-purin-8-yl)phenoxy)-3-methylbutanoic acid]
POLQ PD Prolif Lumin ([1]; DLD-1 BRCA2-/- proliferation, column head only partly shown): 6.9
POLQ PD Prolif Lumin ([2]; DLD-1 BRCA2 wt control proliferation, column head only partly shown): <5.0

CC(COc1cccc(-c2nc3c(OC4(C)CC4)ncnc3n2Cc2cccc(Cl)c2)c1Cl)CC(=O)O (single isomer, unassigned) [Example T299, 4-(2-chloro-3-(9-(3-chlorobenzyl)-6-(1-methylcyclopropoxy)-9H-purin-8-yl)phenoxy)-3-methylbutanoic acid]
IC50 [1, 3]: 79.4 nM
IC50 [2, 4]: > 10000 nM

Cc1cnc(Cn2c(-c3ccc(OC4CCCN(C)CC4)cc3Cl)nc3c(OC4(C)CC4)ncnc32)s1 (single isomer, unassigned) [Example T389, 2-((8-(2-chloro-4-((1-methylazepan-4-yl)oxy)phenyl)-6-(1-methylcyclopropoxy)-9H-purin-9-yl)methyl)-5-methylthiazole]
IC50 [1, 3]: 316 nM
IC50 [2, 4]: > 10000 nM

COc1ccc(F)cc1Cn1c(-c2cccc(OCC(C)CC(=O)O)c2Cl)nc2c(OC3(C)CC3)ncnc21 (single isomer, unassigned) [Example U77, 4-(2-chloro-3-(9-(5-fluoro-2-methoxybenzyl)-6-(1-methylcyclopropoxy)-9H-purin-8-yl)phenoxy)-3-methylbutanoic acid]
IC50 ([1]; DLD-1, DLD-1 BRCA2 −/−, mean, read-out: POLQ PD Prolif Lumin BRCA2 −/− mean pIC50 (converted)): 7.94 nM
IC50 ([2]; DLD-1, DLD1 BRCA2 wt, mean, read-out: POLQ PD Prolif Lumin DLD1 mean pIC50 (converted)): > 10000 nM

C[C@H](CCOc1ccc(-c2nc3c(OC4(C)CC4)ncnc3n2Cc2cccc(Cl)c2)c(Cl)c1)C(=O)O (single isomer, unassigned; isomer 1) [Example 34, 4-(3-Chloro-4-(9-(3-chlorobenzyl)-6-(1-methylcyclopropoxy)-9H-purin-8-yl)phenoxy)-2-methylbutanoic acid (Isomer 1)]
IC50 [1, 5]: 200 nM
IC50 [2, 6]: > 10000 nM

COc1ccc(Cl)cc1Cn1c(-c2cccc(OC[C@@H](C)CC(=O)O)c2Cl)nc2c(OC3(C)CC3)ncnc21 (single isomer, unassigned; isomer 1) [Example 50, 4-(2-Chloro-3-(9-(5-chloro-2-methoxybenzyl)-6-(1-methylcyclopropoxy)-9H-purin-8-yl)phenoxy)-3-methylbutanoic acid (isomer 1)]
IC50 [1, 5]: 6.31 nM
IC50 [2, 6]: > 10000 nM

CC(c1cc(Cl)ccn1)n1c(-c2ccc(OCCN3CCNCC3)cc2Cl)nc2c(OC3(C)CC3)ncnc21 (single isomer, unassigned; isomer 1) [Example S6, 8-(2-chloro-4-(2-(piperazin-1-yl)ethoxy)phenyl)-9-(1-(4-chloropyridin-2-yl)ethyl)-6-(1-methylcyclopropoxy)-9H-purine (Isomer 1)]
POLQ PD Prolif Lumin BRCA2 −/− mean pIC50 ([1]; DLD-1 BRCA2−/− cells, 12 days): 6.5
POLQ PD Prolif Lumin DLD1 mean pIC50 ([2]; DLD-1 BRCA2 wt cells, 7 days): <5.0

C[C@@H](CCOc1ccc(-c2nc3c(OC4(C)CC4)ncnc3n2Cc2cccc(Cl)c2)c(Cl)c1)C(=O)O (single isomer, unassigned; isomer 2) [Example 35, 4-(3-Chloro-4-(9-(3-chlorobenzyl)-6-(1-methylcyclopropoxy)-9H-purin-8-yl)phenoxy)-2-methylbutanoic acid (Isomer 2)]
IC50 [1, 5]: 126 nM
IC50 [2, 6]: > 10000 nM

COc1ccc(Cl)cc1Cn1c(-c2cccc(OC[C@H](C)CC(=O)O)c2Cl)nc2c(OC3(C)CC3)ncnc21 (single isomer, unassigned; isomer 2) [Example 51, 4-(2-Chloro-3-(9-(5-chloro-2-methoxybenzyl)-6-(1-methylcyclopropoxy)-9H-purin-8-yl)phenoxy)-3-methylbutanoic acid (isomer 2)]
IC50 [1, 5]: 7.94 nM
IC50 [2, 6]: > 10000 nM

CC(c1cc(Cl)ccn1)n1c(-c2ccc(OCCN3CCNCC3)cc2Cl)nc2c(OC3(C)CC3)ncnc21 (single isomer, unassigned; isomer 2) [Example S5, 8-(2-chloro-4-(2-(piperazin-1-yl)ethoxy)phenyl)-9-(1-(4-chloropyridin-2-yl)ethyl)-6-(1-methylcyclopropoxy)-9H-purine (Isomer 2)]
POLQ PD Prolif Lumin BRCA2 −/− mean pIC50 ([1]; DLD-1 BRCA2−/− cells, 12 days): 6.1
IC50 [2, 7]: > 10000 nM

Cc1cc(OCCN2CCN(C)CC2)ccc1-c1nc2c(OC(C)C)ncnc2n1Cc1ccccc1 [Example 1, 9-Benzyl-6-isopropoxy-8-(2-methyl-4-(2-(4-methylpiperazin-1-yl)ethoxy)phenyl)-9H-purine]
IC50 [1, 8]: 631 nM
IC50 [2, 7]: 6310 nM

CC(C)Oc1ccc2c(c1)nc(-c1ccc(OCCCN)cc1Cl)n2Cc1ccccc1 [Example 3, 3-(4-(1-Benzyl-5-isopropoxy-1H-benzo[d]imidazol-2-yl)-3-chlorophenoxy)propan-1-amine]
IC50 [1, 8]: 1000 nM
IC50 [2, 7]: 1580 nM

CN1CCN(CCOc2ccc(-c3nc4c(OC5(C)CC5)ncnc4n3Cc3ccccc3)c(Cl)c2)CC1 [Example 4, 9-Benzyl-8-(2-chloro-4-(2-(4-methylpiperazin-1-yl)ethoxy)phenyl)-6-(1-methylcyclopropoxy)-9H-purine]
IC50 [1, 8]: 63.1 nM
IC50 [2, 7]: 3980 nM

CN1CCC(COc2ccc(-c3nc4c(OC5(C)CC5)ncnc4n3Cc3ccccc3)c(Cl)c2)CC1 [Example 5, 9-Benzyl-8-(2-chloro-4-((1-methylpiperidin-4-yl)methoxy)phenyl)-6-(1-methylcyclopropoxy)-9H-purine]
IC50 [1, 8]: 50.1 nM
IC50 [2, 7]: 3160 nM

CC1(Oc2ncnc3c2nc(-c2ccc(OCCN4CCNCC4)cc2Cl)n3Cc2ccccc2)CC1 [Example 6, 9-Benzyl-8-(2-chloro-4-(2-(piperazin-1-yl)ethoxy)phenyl)-6-(1-methylcyclopropoxy)-9H-purine]
IC50 [1, 8]: 158 nM
IC50 [2, 7]: 3980 nM

Cc1nc(Cn2c(-c3ccc(OCCN4CCN(C)CC4)cc3Cl)nc3c(OC4(C)CC4)ncnc32)cs1 [Example 7, 4-((8-(2-Chloro-4-(2-(4-methylpiperazin-1-yl)ethoxy)phenyl)-6-(1-methylcyclopropoxy)-9H-purin-9-yl)methyl)-2-methylthiazole]
IC50 [1, 8]: 794 nM
IC50 [2, 7]: > 10000 nM

CC(C)Oc1ccc2c(n1)nc(-c1ccc(OCCN3CCNCC3)cc1Cl)n2Cc1ccccc1 [Example 8, 1-Benzyl-2-(2-chloro-4-(2-(piperazin-1-yl)ethoxy)phenyl)-5-isopropoxy-1H-imidazo[4,5-b]pyridine]
IC50 [1, 8]: 1000 nM
IC50 [2, 7]: 3160 nM

CC(C)Oc1nccc2c1nc(-c1ccc(OCCN3CCNCC3)cc1Cl)n2Cc1ccccc1 [Example 9, 1-benzyl-2-(2-chloro-4-(2-(piperazin-1-yl)ethoxy)phenyl)-4-isopropoxy-1H-imidazo[4,5-c]pyridine]
IC50 [1, 8]: 631 nM
IC50 [2, 7]: 2510 nM

CC1(Oc2ncnc3c2nc(-c2ccc(OCCN4CCNCC4)cc2Cl)n3Cc2cc(Cl)ccn2)CC1 [Example 10, 8-(2-Chloro-4-(2-(piperazin-1-yl)ethoxy)phenyl)-9-((4-chloropyridin-2-yl)methyl)-6-(1-methylcyclopropoxy)-9H-purine]
IC50 [1, 8]: 200 nM
IC50 [2, 7]: > 10000 nM

CC(C)(Oc1ncnc2c1nc(-c1ccc(OCCN3CCNCC3)cc1Cl)n2Cc1ccccc1)C(F)(F)F [Example 11, 9-Benzyl-8-(2-chloro-4-(2-(piperazin-1-yl)ethoxy)phenyl)-6-((1,1,1-trifluoro-2-methylpropan-2-yl)oxy)-9H-purine]
IC50 [1, 8]: 251 nM
IC50 [2, 7]: 794 nM

CC1(Oc2ncnc3c2nc(-c2ccc(OCCN4CCNCC4)cc2Cl)n3Cc2ccccc2)CCC1 [Example 12, 9-Benzyl-8-(2-chloro-4-(2-(piperazin-1-yl)ethoxy)phenyl)-6-(1-methylcyclobutoxy)-9H-purine]
IC50 [1, 8]: 126 nM
IC50 [2, 7]: 2000 nM

N#CC1(Oc2ncnc3c2nc(-c2ccc(OCCN4CCNCC4)cc2Cl)n3Cc2ccccc2)CC1 [Example 13, 1-((9-Benzyl-8-(2-chloro-4-(2-(piperazin-1-yl)ethoxy)phenyl)-9H-purin-6-yl)oxy)cyclopropane-1-carbonitrile]
IC50 [1, 8]: 251 nM
IC50 [2, 7]: > 10000 nM

CC1(Oc2ccnc3c2nc(-c2ccc(OCCN4CCNCC4)cc2Cl)n3Cc2cc(Cl)ccn2)CC1 [Example 14, 2-(2-Chloro-4-(2-(piperazin-1-yl)ethoxy)phenyl)-3-((4-chloropyridin-2-yl)methyl)-7-(1-methylcyclopropoxy)-3H-imidazo[4,5-b]pyridine]
IC50 [1, 8]: 251 nM
IC50 [2, 7]: > 10000 nM
